In patent US20240197735A1, “METHODS AND COMPOSITIONS COMPRISING A BRAF INHIBITOR AND A PD-1 BINDING ANTAGONIST” (Hoffmann-La Roche Inc., priority 2021, published 2024):

What was measured:
[1] = target: BRAF (Homo sapiens (Human), UniProt P15056); assay: Kd affinity for BRAF kinase; assay type: binding
[2] = test system: P-ERK in HCT116 cells expressing WT BRAF; assay: HTRF assay for P-ERK determination in HCT116 cells (paradoxical BRAF activation); assay type: cell-based; conditions: HCT-116 cells; for EC50: read-out: p-ERK EC50 (nM) conc. (nM) at which the compound induces P-ERK activation of 50% of that induced by dabrafenib (Positive control paradox inducer) HCT-116, 1 hour drug incubation, not applicable if activation does not reach 50% of dabrafenib maximum; for Percentage of Maximum paradox inducing effect from dabrafenib: maximum P-ERK signal as percentage of highest dabrafenib signal within dose range tested
Experimental: (§1) A375 is a cellular cancer model expressing V600E mutated BRAF and HCT116 a cellular cancer model expressing WT BRAF. […] ERK 1,2 phosphorylation (terminal member of the phosphorylation cascade of the MAPK pathway) is hereafter reported as main readout for the activation status of the MAPK pathway. Prior to the assay, A375 and HCT116 cell lines are maintained in DMEM no-phenol red medium supplemented with 10% fetal bovine serum (FBS). […] Briefly, 8000 cells/well in 12 μl media/well are plated in the 384-well plate and left overnight in the incubator (at 37° C. with 5% CO2-humidified atmosphere), the following day the plate is treated in duplicate with test compounds, dabrafenib and PLX8394 (the latter two as controls) at the following final drug concentrations: 10 μM-3 μM-1 μM-0.3 μM-0.1 μM-0.03 μM-0.01 μM-0.003 μM-0.001 μM, all wells are subjected to DMSO normalization and drug incubation occurs for 1 hour. Then, 4 μl of a 4× lysis buffer supplied with the kit are added to the wells, the plate is then centrifuged for 30 second (300 rcf) and incubated on a plate shaker for 1 h at RT.
(§2) At the end of the incubation 4 μL/well of advanced P-ERK antibody solution (prepared according to manufacturer's instruction) followed by 4 μL/well of criptate P-ERK antibody solution (prepared according to manufacturer's instruction) (Cisbio cat #64AERPEH) are added to test wells.
(§3) In order to allow proper data normalization control wells without drug treatment reported are always included in each plate (according to manufacturer's instruction):
(§4) The plate is then centrifuged at 300 rcf for 30 second, sealed to prevent evaporation and incubated overnight in the dark at room temperature.
The plate is then analyzed and fluorescence emission value collected through a Pherastast FSX (BMG Labtech) apparatus at […].
(§5) The obtained fluorescence values are processed according to the formula Ratio=[…]*10000 then the average of the ratio on the blank is subtracted to all values.
Individual points are fitted with either sigmoidal or bell shape curves, and the percentage of activation compared to maximum dabrafenib-mediated activation is determined. The EC50 is the concentration at which activation equal to 50% of the maximum achieved by dabrafenib is obtained.
The Percentage of Maximum paradox inducing effect from dabrafenib is determined by evaluating the percentage at which the test compound induce its maximum P-ERK signal as percentage of the highest signal produced by dabrafenib within the dose range tested.

[3] = target: C-terminal Src kinase (CSK) (Homo sapiens (Human), UniProt P41240); assay: Kd affinity for C-terminal Src kinase (selectivity); assay type: binding
[4] = target: lymphocyte-specific tyrosine protein kinase (LCK) (Homo sapiens (Human), UniProt P06239); assay: Kd affinity for lymphocyte-specific tyrosine protein kinase (selectivity); assay type: binding
[5] = test system: P-ERK in A375 cells expressing V600E mutated BRAF; assay: HTRF assay for P-ERK determination in A375 cells (BRAF inhibition); assay type: cell-based; conditions: Homo sapiens, A-375, 1 h, read-out: pERK IC50 (nM) A375
Experimental: as §1, §2, §3, §4, §5
Mean of the normalized points are fitted with sigmoidal curve and IC50 determined.

[6] = target: CRAF (Homo sapiens (Human), UniProt P04049); assay: Kd affinity for CRAF kinase; assay type: binding
[7] = target: BRAF V600E (Homo sapiens (Human), UniProt P15056, V600E); assay: Kd affinity for BRAF V600E kinase; assay type: binding
[8] = test system: YUMM1.7 tumors (BRAF V600E); assay: In vivo antitumor activity on YUMM1.7 syngeneic allograft tumors; design: species or system mouse (C57BL/6); conditions: combination of Compound Ia (1 or 5 mg/kg PO QD) and mouse anti PD-1 antibody (IV once a week); monitored until day 58
Experimental: Mice were treated until day 31 and afterwards drug treatments were suspended and mice were monitored for evidences of tumor regrowth.
Mice were treated until day 45 and afterwards drug treatments were suspended and mice were monitored for evidences of tumor regrowth.
In the in vivo studies, female mice 7-9 weeks old (at experiment initiation) of the immunocompetent strain C57BL/6 were utilized. The experiment was performed at the Contract Research Organization (CRO) Covance that sourced mice, performed tumor establishment, drug treatment and tumor monitoring.
For xenograft establishment YUMM1.7 cells were suspended in a media composed of 50% Matrigel and 50% Hank's balanced Salt Solution and injected subcutaneously on the right flanks. When tumor volume reached around 100 mm^3 mice were randomized prior treatment.
Mice were implanted with the cell line YUMM1.7 harboring the BRAF V600E mutation. Upon tumor establishment (100 mm3) mice were randomized and received orally (PO) once per day (QD) either Compound Ia (1 mg/kg or 5 mg/kg), mouse anti PD-1 antibody through IV injection, once a week or the respective combinations of PD-1 and Compound Ia at 1 or 5 mg/kg. […] Upon treatment conclusion mice were monitored until day 58 for signs of tumor relapse.

[9] = test system: P-ERK in A375 BRAF V600E NRAS Q61K cells; assay: P-ERK levels in first generation BRAFi resistant cell model A375 BRAF V600E NRAS Q61K; assay type: cell-based
[10] = test system: YUMM1.7 tumors, immune cell infiltrate (mCD45, mCD3); assay: Immuno-phenotyping of YUMM1.7 tumors by flow cytometry and IHC; assay type: in vivo, mouse (C57/BL6)
Experimental: FIG. 6 reports the total immune cell (top) and T-cell (bottom) infiltrates in tumors, as quantified through flow cytometry. Total immune cell infiltrate was expressed as percentage of mCD45 positive with respect to the alive cells at day 3 and day 6, and T-cell infiltrate expressed in mCD3 positive cells per mm2.
FIG. 7 reports the immunohistochemistry analysis of the mouse immune cell marker CD45 of tumors treated for 3 days with either Vehicle, Compound Ia at 5 mg/kg (daily), mPD1 at 12.5 mg/kg (single treatment) or a combination thereof.
For the immunohistochemical analysis, female C57/BL6 mice were injected subQ with YUMM1.7 cells. When tumors reached around 250 mm^3 (day 14) mice were treated with either Compound Ia at 1 or 5 mg/kg daily (oral administration), with anti-mouse PD1 at 12.5 mg/kg once (single intraveneous administration) or the combination of Compound Ia and anti-mPD1. Mice were sacrificed and tumors collected upon 3 or five days from the beginning of the treatment and tumors were either digested and utilized for cytofluorimetric analysis of fixed and paraffin embedded.

Sequence of lymphocyte-specific tyrosine protein kinase (LCK) (P06239 whole entry): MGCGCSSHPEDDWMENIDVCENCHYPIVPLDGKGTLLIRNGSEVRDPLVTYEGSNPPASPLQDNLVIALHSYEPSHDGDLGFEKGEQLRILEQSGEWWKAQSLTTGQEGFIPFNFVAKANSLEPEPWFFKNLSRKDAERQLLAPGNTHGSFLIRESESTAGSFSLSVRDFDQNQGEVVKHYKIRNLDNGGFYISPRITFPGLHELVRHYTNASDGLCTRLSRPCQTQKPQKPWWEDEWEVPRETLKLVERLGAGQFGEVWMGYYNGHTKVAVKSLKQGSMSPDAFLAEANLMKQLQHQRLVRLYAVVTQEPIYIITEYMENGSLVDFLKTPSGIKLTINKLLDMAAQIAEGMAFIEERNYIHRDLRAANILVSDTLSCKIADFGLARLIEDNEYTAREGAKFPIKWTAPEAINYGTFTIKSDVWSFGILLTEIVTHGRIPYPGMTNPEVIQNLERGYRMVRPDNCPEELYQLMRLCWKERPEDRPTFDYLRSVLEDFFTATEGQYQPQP
Sequence of BRAF V600E (P15056 whole entry V600E): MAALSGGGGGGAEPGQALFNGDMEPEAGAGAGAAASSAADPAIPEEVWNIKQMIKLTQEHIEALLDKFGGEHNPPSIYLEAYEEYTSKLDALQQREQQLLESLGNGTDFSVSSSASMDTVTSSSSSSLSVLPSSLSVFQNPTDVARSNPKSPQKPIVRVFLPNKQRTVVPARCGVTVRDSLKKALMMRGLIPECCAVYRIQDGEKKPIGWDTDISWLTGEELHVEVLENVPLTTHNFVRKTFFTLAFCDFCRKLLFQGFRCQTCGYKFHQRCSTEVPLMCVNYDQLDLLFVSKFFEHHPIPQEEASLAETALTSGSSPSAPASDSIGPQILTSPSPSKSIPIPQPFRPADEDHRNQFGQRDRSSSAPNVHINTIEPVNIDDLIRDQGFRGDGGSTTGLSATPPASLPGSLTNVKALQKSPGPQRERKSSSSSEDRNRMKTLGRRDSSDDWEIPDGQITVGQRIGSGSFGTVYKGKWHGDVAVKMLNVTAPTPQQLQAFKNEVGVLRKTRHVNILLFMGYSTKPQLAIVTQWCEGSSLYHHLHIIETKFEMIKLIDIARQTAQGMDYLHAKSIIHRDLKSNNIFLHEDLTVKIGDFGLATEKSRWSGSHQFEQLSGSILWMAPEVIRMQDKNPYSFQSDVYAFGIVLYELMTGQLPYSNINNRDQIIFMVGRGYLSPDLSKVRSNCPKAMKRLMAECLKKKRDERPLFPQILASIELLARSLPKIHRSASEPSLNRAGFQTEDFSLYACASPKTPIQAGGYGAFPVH
Sequence of BRAF (P15056 whole entry): as the sequence (P15056 whole entry V600E) above, with E600V counted along it
Sequence of CRAF (P04049 whole entry): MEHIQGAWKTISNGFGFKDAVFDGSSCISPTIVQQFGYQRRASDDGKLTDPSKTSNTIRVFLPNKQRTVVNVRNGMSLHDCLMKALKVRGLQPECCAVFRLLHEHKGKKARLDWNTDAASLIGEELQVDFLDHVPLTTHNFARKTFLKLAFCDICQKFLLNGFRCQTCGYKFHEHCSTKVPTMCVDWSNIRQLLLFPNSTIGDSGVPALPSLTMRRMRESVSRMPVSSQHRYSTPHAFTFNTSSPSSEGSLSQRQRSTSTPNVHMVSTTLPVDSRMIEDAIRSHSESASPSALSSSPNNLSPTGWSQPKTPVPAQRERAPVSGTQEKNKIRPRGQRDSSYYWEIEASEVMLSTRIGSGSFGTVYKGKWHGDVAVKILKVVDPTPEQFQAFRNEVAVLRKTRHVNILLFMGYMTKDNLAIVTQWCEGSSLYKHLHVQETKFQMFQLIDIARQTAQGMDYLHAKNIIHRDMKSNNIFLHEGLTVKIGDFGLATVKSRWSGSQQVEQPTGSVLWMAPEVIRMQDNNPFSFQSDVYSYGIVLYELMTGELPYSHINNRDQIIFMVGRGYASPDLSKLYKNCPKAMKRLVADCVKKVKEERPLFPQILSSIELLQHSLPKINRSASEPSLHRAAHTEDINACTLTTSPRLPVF
Sequence of C-terminal Src kinase (CSK) (P41240 whole entry): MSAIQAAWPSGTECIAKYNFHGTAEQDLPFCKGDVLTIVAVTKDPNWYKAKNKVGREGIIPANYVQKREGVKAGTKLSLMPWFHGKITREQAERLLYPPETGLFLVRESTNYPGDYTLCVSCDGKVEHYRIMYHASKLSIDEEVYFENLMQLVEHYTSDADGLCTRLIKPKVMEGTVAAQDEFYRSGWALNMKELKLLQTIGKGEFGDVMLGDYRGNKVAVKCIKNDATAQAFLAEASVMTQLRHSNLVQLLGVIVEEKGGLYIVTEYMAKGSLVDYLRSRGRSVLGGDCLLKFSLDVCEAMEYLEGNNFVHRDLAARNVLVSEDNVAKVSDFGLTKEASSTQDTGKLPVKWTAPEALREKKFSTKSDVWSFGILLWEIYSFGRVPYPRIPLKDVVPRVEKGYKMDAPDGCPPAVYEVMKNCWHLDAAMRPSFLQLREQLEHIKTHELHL

## CCCS(=O)(=O)Nc1ccc(F)c(Oc2ccc3ncn(C)c(=O)c3c2)c1C#N [AR-25]
[1]
  Kd: 0.1 nM
[2]
  EC50: 9.6 nM
[3]
  Kd: > 40000 nM
[4]
  Kd: > 40000 nM
[5]
  IC50: 1.1 nM
[6]
  Kd: 0.3 nM
[7]
  Kd: 0.2 nM

## CN(C)S(=O)(=O)Nc1ccc(Cl)c(Nc2ccc3ncn(C)c(=O)c3c2)c1F [AR-30]
[1]
  Kd: 174 nM
[2]
  Percentage of Maximum paradox inducing effect from dabrafenib: 59%
  EC50: > 1000 nM
[3]
  Kd: 8010 nM
[4]
  Kd: 10400 nM
[5]
  IC50: 406 nM
[6]
  Kd: 822 nM
[7]
  Kd: 504 nM

## Cn1cnc2ccc(Nc3c(Cl)ccc(NS(=O)(=O)N4CCCC4)c3F)cc2c1=O [AR-31]
[1]
  Kd: 45.9 nM
[2]
  Percentage of Maximum paradox inducing effect from dabrafenib: 51.2%
  EC50: > 1000 nM
[3]
  Kd: 1210 nM
[4]
  Kd: 12000 nM
[5]
  IC50: 311 nM
[6]
  Kd: 190 nM
[7]
  Kd: 119 nM

## Cn1cnc2ccc(Oc3c(F)ccc(NS(=O)(=O)N4CC[C@@H](F)C4)c3C#N)cc2c1=O [Ex. 1, (3R)-N-[2-cyano-4-fluoro-3-(3-methyl-4-oxo-quinazolin-6-yl)oxy-phenyl]-3-fluoro-pyrrolidine-1-sulfonamide]
[8]
  number of mice showing disease relapse: strong impact
[2]
  Percentage of Maximum paradox inducing effect from dabrafenib: 43.65%
[9]; combination with cobimetinib at fixed dose of 10 nM, compared with encorafenib/binimetinib
  P-ERK reduction in combination with MEKi cobimetinib: superior P-ERK reduction
[9]; single agent, compared with Encorafenib
  P-ERK inhibition as single agent: potent P-ERK inhibition
[10]; YUMM1.7 tumors, Compound Ia oral daily
  antitumor response: robust antitumor response
[10]; flow cytometry and IHC data
  recruitment of inflammatory infiltrate in tumors: triggers recruitment of inflammatory infiltrate
